Earlier results as cited in patent publication US20020013320A1, “Use of growth hormone secretagogues to treat systemic lupus erythematosus and inflammatory bowel disease” (priority 2000, published 2002).
Where a SMILES comes first, the peptide text is derived from it. [ ]: non-standard residue; d: D form. d2Nal = N[C@H](Cc1ccc2ccccc2c1)C(=O)O; Aib = CC(C)(N)C(=O)O

Legend:
[1] = canines during remobilization
[2] = oral treatment, obese young males
[3] = adult female rats

## CC(C)(N)C(=O)N[C@H](COCc1ccccc1)C(=O)N1CCC2(CC1)CN(S(C)(=O)=O)c1ccccc12 [MK-0677]
[1]
  levels of serum insulin-like growth factor-1: elevated
  size and strength of the quadriceps muscle: increased
[2]
  markers of bone formation and bone resorption: increases

## CC(C)(N)C(=O)N[C@@H](Cc1c[nH]cn1)C(=O)N[C@H](Cc1ccc2ccccc2c1)C(=O)N[C@H](Cc1ccccc1)C(=O)N[C@@H](CCCCN)C(N)=O [Ipamorelin] (H-[Aib]H[d2Nal][dF]K-NH2)
[3]
  bone mass: have the capacity to increase bone mass

## GHRP-6
[3]
  bone mass: have the capacity to increase bone mass
